What was measured:
[1] = target: T1, β5c subunit of isolated human 20S proteasome (Homo sapiens, UniProt P28074); experiment: Proteasome inhibition assay (20 S Proteasome Assay Kit, Suc‐LLVY‐AMC); format: biochemical
T1 construct: purchased Enzo Life Sciences
Procedure, shortened: (§1)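 Isolated human 20S proteasome (200 ng/well) preincubated 30 min with inhibitor, then 100 μM final Suc-LLVY-AMC (β5c, β5i) or Z-LLE-AMC (β1c) added for 60 min; fluorescence read. Residual activity at 100 nM final (n=3; β5c, β5i) or 1 μM (n=1, incl. β1c). IC50s: technical duplicates, mean of three experiments.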

[2] = target: T2, β5i subunit of isolated human 20S proteasome (Homo sapiens, UniProt P28062); experiment: as above; format: biochemical
T2 construct: purchased Enzo Life Sciences
Procedure, shortened: as §1

[3] = target: T3, β2c subunit of isolated human 20S proteasome (Homo sapiens, UniProt Q99436); experiment: Proteasome inhibition assay (20 S Proteasome Assay Kit, Bz‐VGR‐AMC); format: biochemical; conditions: c = 1 µM, n=1; read-out: Inhibition cCP β2
T3 construct: purchased Enzo Life Sciences
Procedure, shortened: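 Isolated 20S proteasome (200 ng/well) was preincubated 30 min with inhibitor, then Bz-VGR-AMC (100 μM final) was added for 60 min and fluorescence read. Single-point residual activity was taken at 100 nM or 1 μM; IC50 was fitted from duplicates, mean of three independent experiments.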

Danio rerio embryos = experiment: Danio rerio embryo toxicity assay (not dechorionated); format: in vivo
Experimental: Danio rerio embryo toxicity assay. Fish keeping protocols are approved by the Darmstadt administrative authority and documented. All fish were treated humanely. […] Embryos were decollated into separate wells containing a total volume of 200 μL and the inhibitor at the given concentration.

Structure (SMILES): Cc1cc(C)c(Oc2ccccc2)cc1NC(=O)C(=O)[C@H](CC(C)C)NC(=O)[C@H](CC(C)C)NC(=O)[C@H](CC(C)C)NC(=O)c1cc(Cl)ccc1Cl [Compound 27, 2,5‐Dichloro‐N‐((S)‐1‐(((S)‐1‐(((S)‐1‐((2,4‐dimethyl‐5‐phenoxyphenyl)amino)‐5‐methyl‐1,2‐dioxo‐hexan‐3‐yl)amino)‐4‐methyl‐1‐oxopentan‐2‐yl)amino)‐4‐methyl‐1‐oxopentan‐2‐yl)benzamide]
- inhibition at 1 µM ([1]; c = 1 µM, n=1, read-out: Inhibition cCP β5): 91%
- inhibition at 0.1 µM ([1]; c=100 nM, read-out: Rel. Inhibition β5c): 83%
- IC50 ([1]; purified proteasome): 23 nM
- Fold‐IC50 β5i/β5c ([1]; selectivity β5c over β5i): 4.2
- inhibition at 1 µM ([2]; c = 1 µM, n=1, read-out: Inhibition iCP β5): 68%
- inhibition at 0.1 µM ([2]; c=100 nM, read-out: Rel. Inhibition β5i): 58%
- IC50 ([2]; purified proteasome): 96 nM
- inhibition at 1 µM [3]: 6%
- Survival of embryos (not dechorionated) (Danio rerio embryos; 1 µM, 24 h): 100%
- Survival of embryos (not dechorionated) (Danio rerio embryos; 1 µM, 48 h): 100%
- Survival of embryos (not dechorionated) (Danio rerio embryos; 1 µM, 72 h): 100%
- Survival of embryos (not dechorionated) (Danio rerio embryos; 1 µM, 96 h): 100%
- Survival of embryos (not dechorionated) (Danio rerio embryos; 5 µM, 24 h): 100%
- Survival of embryos (not dechorionated) (Danio rerio embryos; 5 µM, 48 h): 100%
- Survival of embryos (not dechorionated) (Danio rerio embryos; 5 µM, 72 h): 100%
- Survival of embryos (not dechorionated) (Danio rerio embryos; 5 µM, 96 h): 100%
- Survival of embryos (not dechorionated) (Danio rerio embryos; 10 µM, 24 h): 100%
- Survival of embryos (not dechorionated) (Danio rerio embryos; 10 µM, 48 h): 100%
- Survival of embryos (not dechorionated) (Danio rerio embryos; 10 µM, 72 h): 100%
- Survival of embryos (not dechorionated) (Danio rerio embryos; 10 µM, 96 h): 100%
- Survival of embryos (not dechorionated) (Danio rerio embryos; 25 µM, 24 h): 100%
- Survival of embryos (not dechorionated) (Danio rerio embryos; 25 µM, 48 h): 100%
- Survival of embryos (not dechorionated) (Danio rerio embryos; 25 µM, 72 h): 100%
- Survival of embryos (not dechorionated) (Danio rerio embryos; 25 µM, 96 h): 100%
